From ChEMBL document CHEMBL3232974, “In vivo optimization of 2,3-diaminopyrazine Rho Kinase inhibitors for the treatment of glaucoma” (Bioorg Med Chem Lett, 2014) come the findings set out here.

Data set [1] in a line: Drug level in Dutch-Belted rabbit aqueous humor at 150 ug administered as topical ocular instillation after 30 mins by RP-HPLC analysis. It counts as ADME, Oryctolagus cuniculus, Aqueous humor of eyeball. The note with it: topical or ocular, read-out: Drug uptake.
The target in data set [2] is Rho-associated protein kinase 2 (Homo sapiens, UniProt O75116). The data set is described as follows: Inhibition of truncated ROCK-2 (unknown origin) after 60 mins by IMAP assay.
Sequence of Rho-associated protein kinase 2 (O75116 whole entry, the tested form may be a part): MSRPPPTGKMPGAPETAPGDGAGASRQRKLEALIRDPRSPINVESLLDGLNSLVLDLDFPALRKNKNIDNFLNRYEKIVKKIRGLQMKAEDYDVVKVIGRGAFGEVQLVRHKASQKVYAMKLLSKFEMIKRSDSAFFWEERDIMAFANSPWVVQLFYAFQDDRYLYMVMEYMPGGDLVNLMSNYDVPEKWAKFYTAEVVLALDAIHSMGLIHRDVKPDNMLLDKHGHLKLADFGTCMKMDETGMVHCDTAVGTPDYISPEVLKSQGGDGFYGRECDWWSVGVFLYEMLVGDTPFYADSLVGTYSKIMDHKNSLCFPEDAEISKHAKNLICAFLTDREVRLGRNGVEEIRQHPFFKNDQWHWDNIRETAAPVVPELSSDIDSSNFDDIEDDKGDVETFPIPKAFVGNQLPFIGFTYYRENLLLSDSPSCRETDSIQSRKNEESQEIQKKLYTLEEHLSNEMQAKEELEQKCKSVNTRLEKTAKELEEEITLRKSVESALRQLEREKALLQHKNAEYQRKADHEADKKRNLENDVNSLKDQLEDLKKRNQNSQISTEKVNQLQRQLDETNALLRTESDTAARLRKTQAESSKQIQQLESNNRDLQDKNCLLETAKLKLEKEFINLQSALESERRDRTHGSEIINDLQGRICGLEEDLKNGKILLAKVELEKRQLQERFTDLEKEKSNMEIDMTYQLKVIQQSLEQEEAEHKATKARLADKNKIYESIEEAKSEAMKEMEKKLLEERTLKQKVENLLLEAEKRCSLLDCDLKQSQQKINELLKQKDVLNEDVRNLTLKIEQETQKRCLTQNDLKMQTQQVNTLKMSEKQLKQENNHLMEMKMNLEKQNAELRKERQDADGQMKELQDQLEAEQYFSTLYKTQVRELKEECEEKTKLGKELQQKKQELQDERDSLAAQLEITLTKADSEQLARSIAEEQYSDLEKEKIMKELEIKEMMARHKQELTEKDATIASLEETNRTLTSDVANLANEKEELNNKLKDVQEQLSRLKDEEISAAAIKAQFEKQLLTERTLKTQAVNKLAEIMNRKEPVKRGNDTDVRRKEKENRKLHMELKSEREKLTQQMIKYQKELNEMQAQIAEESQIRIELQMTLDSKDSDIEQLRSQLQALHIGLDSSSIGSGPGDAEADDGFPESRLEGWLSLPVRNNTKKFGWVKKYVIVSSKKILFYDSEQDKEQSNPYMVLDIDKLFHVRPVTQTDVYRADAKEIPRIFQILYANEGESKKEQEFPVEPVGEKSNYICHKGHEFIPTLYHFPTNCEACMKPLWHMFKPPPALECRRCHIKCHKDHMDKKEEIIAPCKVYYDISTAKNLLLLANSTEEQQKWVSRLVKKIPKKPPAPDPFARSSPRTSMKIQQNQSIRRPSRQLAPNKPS
Data set [3] addresses Rho-associated protein kinase 1 (Homo sapiens, UniProt Q13464). The data set is described as follows: Inhibition of truncated ROCK-1 (unknown origin).
The species named for data set [4] is Cavia porcellus. In words: Antiglaucoma activity in guinea pig assessed as hyperemia at 300 ug after 2 hrs relative to control. It counts as functional.
Data set [5] is described as follows: Aqueous solubility of the compound. It counts as physicochemical. Conditions: buffer.
Data set [6] relates to Cynomolgus monkey. In words: Antiglaucoma activity in cynomolgus monkey assessed as reduction in intraocular pressure at MTD administered as topical ocular dose after 6 hrs relative to control. The arrangement: scale not given: the % may be the effect or the level left. The class given is functional, Macaca fascicularis, Eye.
Data set [7] concerns Cynomolgus monkey. In words: Toxicity in cynomolgus monkey compound administered as topical ocular dose after 6 hrs. It counts as organism-based, Macaca fascicularis, Eye. The note with it: in vivo, topical_or_ocular.
The species entered for data set [8] is Cavia porcellus. In words: Antiglaucoma activity in guinea pig assessed as lowest dose required for producing 100% hyperemia after 2 hrs. It counts as functional.
Data set [9] deals with Homo sapiens. The data set is described as follows: Antiglaucoma activity in human assessed as reduction in intraocular pressure at 0.25% solution administered as topical ocular dose after 21 days relative to control. The arrangement: scale not given: the % may be the effect or the level left. The class given is functional, Eye.
The species entered for data set [10] is Cavia porcellus. The data set is described as follows: Antiglaucoma activity in guinea pig assessed as hyperemia at 30 ug after 2 hrs relative to control. The class given is functional.
Data set [11] can be described thus: Drug level in Dutch-Belted rabbit aqueous humor at 300 ug administered as topical ocular instillation after 30 mins by RP-HPLC analysis. The class given is ADME, Oryctolagus cuniculus, Aqueous humor of eyeball. Conditions: topical or ocular, read-out: Drug uptake.
Data set [12] is filed under the species Cavia porcellus. In words: Antiglaucoma activity in guinea pig assessed as hyperemia at 100 ug after 2 hrs relative to control. It counts as functional.
Data set [13] concerns Homo sapiens. In words: Antiglaucoma activity in human assessed as reduction in intraocular pressure at 0.1% solution administered as topical ocular instillation relative to control. The class given is functional, Eye. The arrangement: scale not given: the % may be the effect or the level left.
Data set [14] is described as follows: Drug level in Dutch-Belted rabbit aqueous humor at 100 ug administered as topical ocular instillation after 30 mins by RP-HPLC analysis. The class given is ADME, Oryctolagus cuniculus, Aqueous humor of eyeball. The note with it: topical or ocular, read-out: Drug uptake.

Where only a bound is given, the exact number is not on record here.

Sequence of Rho-associated protein kinase 1 (Q13464 whole entry, the tested form may be a part): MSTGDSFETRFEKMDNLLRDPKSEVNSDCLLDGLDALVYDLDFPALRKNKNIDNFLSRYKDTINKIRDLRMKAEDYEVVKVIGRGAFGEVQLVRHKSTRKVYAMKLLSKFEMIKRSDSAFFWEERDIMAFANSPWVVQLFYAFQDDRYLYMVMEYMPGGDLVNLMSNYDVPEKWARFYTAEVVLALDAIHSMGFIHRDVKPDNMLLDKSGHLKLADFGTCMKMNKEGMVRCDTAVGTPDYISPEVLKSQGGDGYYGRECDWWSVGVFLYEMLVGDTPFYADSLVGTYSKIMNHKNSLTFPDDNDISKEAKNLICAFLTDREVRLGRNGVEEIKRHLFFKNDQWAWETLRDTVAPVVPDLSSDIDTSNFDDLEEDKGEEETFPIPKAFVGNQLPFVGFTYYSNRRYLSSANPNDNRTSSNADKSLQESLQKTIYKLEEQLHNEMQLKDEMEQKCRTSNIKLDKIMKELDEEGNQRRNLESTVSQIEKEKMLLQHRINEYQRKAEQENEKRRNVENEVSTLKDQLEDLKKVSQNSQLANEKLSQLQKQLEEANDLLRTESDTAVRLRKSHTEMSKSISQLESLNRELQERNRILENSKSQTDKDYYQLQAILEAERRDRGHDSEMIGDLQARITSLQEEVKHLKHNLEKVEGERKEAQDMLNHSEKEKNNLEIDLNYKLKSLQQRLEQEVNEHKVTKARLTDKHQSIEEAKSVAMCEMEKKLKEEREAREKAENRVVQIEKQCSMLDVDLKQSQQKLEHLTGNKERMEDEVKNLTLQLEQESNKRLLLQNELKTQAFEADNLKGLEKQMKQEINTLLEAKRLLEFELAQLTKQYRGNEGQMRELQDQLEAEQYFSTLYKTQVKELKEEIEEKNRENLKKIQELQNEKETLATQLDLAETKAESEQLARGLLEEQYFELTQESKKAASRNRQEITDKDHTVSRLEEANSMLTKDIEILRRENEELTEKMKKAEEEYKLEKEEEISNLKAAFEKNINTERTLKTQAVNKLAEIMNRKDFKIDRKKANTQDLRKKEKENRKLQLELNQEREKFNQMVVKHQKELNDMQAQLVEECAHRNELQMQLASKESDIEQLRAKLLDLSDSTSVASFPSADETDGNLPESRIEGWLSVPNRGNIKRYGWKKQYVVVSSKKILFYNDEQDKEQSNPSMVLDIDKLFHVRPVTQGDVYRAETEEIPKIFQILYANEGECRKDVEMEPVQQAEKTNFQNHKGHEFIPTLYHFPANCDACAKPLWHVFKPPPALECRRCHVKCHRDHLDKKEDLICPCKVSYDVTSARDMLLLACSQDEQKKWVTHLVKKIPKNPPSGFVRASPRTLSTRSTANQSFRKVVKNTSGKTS

The term IC50 denotes the concentration needed to halve the response being measured. As to `CN(C)CC(O)CN1CCN(c2nc(-c3ccncc3)cnc2N2CCCC2)CC1` (configuration not stated), the concentration at 0.5 h in data set [1] came to 950 nM. Besides, the IC50 in data set [2] was 76 nM; in data set [3] it was 288 nM. Besides, the Activity in data set [4] was found to be 58%; in data set [6] it was 14%. In [5], the solubility result is “soluble”. The same molecule returned an MTD in [7] of 1%.

Regarding `c1nc(N2CCCC2)c(N2CCCNCC2)nc1-c1cc2cn[nH]c2cn1`, the concentration at 0.5 h in data set [1] was 680 nM. The IC50 was found to be 65 nM in data set [2] and 203 nM in data set [3]. The values for the Activity in data set [8] and in data set [6] were 30 µg and 26%, respectively. In data set [7], this molecule returned an MTD of 0.33%.

Consider `CNC(CC1CCCCC1)C(=O)Nc1ccc2cnccc2c1` (configuration not stated), for which the Activity in [9] is recorded as 20%.

For the molecule `CC(=O)NCCCN1CCN(c2nc(-c3ccncc3)cnc2N2CCCC2)CC1`, the concentration at 0.5 h in data set [1] was found to be 8300 nM. Further, the 50% inhibitory concentration (IC50) in data set [2] turned out to be 75 nM; in data set [3], 346 nM. The Activity is 66% in [10] and 24% in data set [6]. Further, in data set [5], the solubility result is given as “soluble”. This molecule also showed an MTD in [7] of 0.5%.

Take `OCCN1CCN(c2nc(-c3ccncc3)cnc2N2CCCC2)CC1`: the values for the IC50 in data set [2] and in [3] were 39 nM and 570 nM, respectively. Further, the concentration at 0.5 h in data set [11] amounted to 3800 nM. Moreover, the values for the Activity in data set [12] and in data set [6] were 33% and 26%, respectively. The solubility entry in data set [5] is recorded as “soluble”. The molecule also yielded an MTD in [7] of 1%.

For `C[C@@H](N)c1ccc(C(=O)Nc2ccnc3[nH]ccc23)cc1` [Y-39983], the Activity in data set [13] is 22%; in [8], 3 µg; in [6] it was less than 15%. The concentration at 0.5 h in data set [11] worked out at 4400 nM. In data set [5], the solubility result is “soluble”. In data set [7], the MTD turned out to be 0.1%.

Take `Cc1n[nH]c2ccc(-c3cncc(N4CCCNCC4)n3)cc12`: the concentration at 0.5 h in [14] was found to be 200 nM. Moreover, the IC50 came to 36 nM in [2] and 140 nM in [3]. Moreover, the Activity in data set [6] is given as 31%. Also, the MTD in data set [7] stood at 0.33%.

Take `c1cc2[nH]ncc2cc1-c1cncc(N2CCCNCC2)n1`: the concentration at 0.5 h in [14] came to 1000 nM. Further, the IC50 was 24 nM in data set [2] and 105 nM in [3]. For the same molecule, the Activity in [8] is 30 µg; in data set [6], 30%. For the same molecule, the MTD in [7] was determined as 0.33%.

In the case of `CC(=O)NCC(O)CN1CCN(c2nc(-c3ccncc3)cnc2N2CCCC2)CC1` (configuration not stated), the concentration at 0.5 h in data set [14] was found to be 4800 nM. The concentration for half-maximal inhibition (IC50) came to 68 nM in data set [2] and 350 nM in [3]. The Activity was 42% in [12] and 9% in data set [6]. Besides, the solubility entry in data set [5] is given as “soluble”. Moreover, in data set [7], the MTD is on record as 0.33%.
